From patent US9243021B2, “Galactoside inhibitor of galectins” (University of Edinburgh, priority 2012, dated 2016)

Experiments:
[1] = system: β-catenin activation; test: TGF-β1-induced β-catenin activation in primary alveolar epithelial cells (western blot); type: cell-based, mouse; conditions: primary alveolar epithelial cells from WT mice, TGF-β1, 10 μM TD139
Method: Primary alveolar epithelial cells from WT mice were plated and treated with TGF-β1 in the presence or absence of 10 μM TD139. FIG. 1D) Cells were lysed and analyzed for active β-catenin, total β-catenin and β-actin by western blot.
Treated and control mouse type II lung alveolar epithelial cells (AECs) were extracted following a standard method. Briefly, 1 ml of 50 U/ml dispase (BD Biosciences) was administered intratracheally into perfused lungs followed by instillation of 0.5 ml of 1% low melting point agarose. The agarose within the upper airways was allowed to set on ice for 2 minutes and the lungs were placed in 4 ml 50 U/ml dispase for 45 min at room temperature. The lung lobes minus the upper airways were then dispersed in DMEM containing 50 μg/ml DNAse I (Sigma-Aldrich, UK). The cell suspension was passed through a 100 μm cell strainer and the cells washed in DMEM followed by resuspension in DMEM containing 10% FCS. The cell suspension was plated onto tissue culture plastic for 1 h to allow any contaminated fibroblasts and macrophages to adhere. Non-adherent epithelial cells were counted and cultured for 2 days on tissue culture plastic or cover-slips pre-coated with 5 μg/ml collagen (AMS Biotechnology) and 10 μg/ml fibronectin (Sigma-Aldrich), Cells were washed three times in PBS before treatment. […]

[2] = system: bleomycin induced lung fibrosis; test: Model of bleomycin-induced lung fibrosis; type: in vivo, mouse; conditions: female C57/Bl6 mice, intratracheal on days 18, 20, 22 and 24, lungs harvested day 26
Method: Female C57/Bl6 mice (10-14 weeks old) were anaesthetized with halothane, and bleomycin or saline was administered intratracheally (33 μg in 50 μl of saline) and lungs were harvested on day 26. TD139 was instilled into the lungs of mice on days 18, 20, 22 and 24 of bleomycin induced lung injury. Fibrosis was assessed by histological score of collagen stained lung sections and by total collagen content by Sircol assay.
Mice were treated with bleomycin (bleo) or saline (control) and bleomycin treated mice were treated with 200 mg/kg pirfenidone twice daily on days 18-24. TD139 was administered intratracheally on days 18, 20, 22 and 24. Lungs were harvested on day 26.
Histological lung inflammation and fibrosis score were carried out in Masson's trichrome stained sections. Inflammation (peribronchiolar, perivascular, and alveolar wall thickness) scored in >5 random fields at magnification×630 using the following system (peribronchiolar and perivascular, 1=no cells, 2=<20 cells, 3=20-100 cells, 4=>100 cells; alveolar wall thickness, 1=no cells, 2=2-3 cells thick, 3=4-5 cells thick, 4=>5 cells thick). The combined inflammatory score was the sum of these scores. Fibrosis score was evaluated as the area of the section positively stained for collagen (1=none, 2=<10%, 3=<50%, 4=>50%). Only fields where the majority of the field was composed of alveoli were scored. […]

[3] = half-life by route of administration; type: in vivo; conditions: mice
[4] = molecular target: galectin-3 (Homo sapiens, UniProt P17931)
Sequence of galectin-3 (P17931 whole entry): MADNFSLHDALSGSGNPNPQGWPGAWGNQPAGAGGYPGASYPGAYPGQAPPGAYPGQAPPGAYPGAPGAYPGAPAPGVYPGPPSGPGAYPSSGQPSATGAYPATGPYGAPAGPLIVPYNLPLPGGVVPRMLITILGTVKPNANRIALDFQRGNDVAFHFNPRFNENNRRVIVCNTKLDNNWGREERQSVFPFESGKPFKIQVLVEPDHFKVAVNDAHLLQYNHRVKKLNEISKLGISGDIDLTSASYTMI

half-life, pulmonary route compared with i.v. or s.c. routes [3]: considerably longer half-life
galectin-3 inhibitor [4]: inhibitor
Compound: OC[C@H]1O[C@@H](S[C@@H]2O[C@H](CO)[C@H](O)[C@H](n3cc(-c4cccc(F)c4)nn3)[C@H]2O)[C@H](O)[C@@H](n2cc(-c3cccc(F)c3)nn2)[C@H]1O [TD139, Bis-{3-deoxy-3-[4-(3-fluorophenyl)-1H-1,2,3-triazol-1-yl]-β-D-galactopyranosyl}sulfane]
TGF-β-induced β-catenin activation in vitro [1]: blocked
bleomycin induced lung fibrosis in vivo [2]: blocked
